Reference: patent publication US20240090503A1, “FUNGICIDAL OXADIAZOLES AND THEIR MIXTURES” (FMC CORPORATION, priority 2020, published 2024)
Marks after values point to notes of the source that are not given here.

Columns and labels:
Assay type in all cases: in vivo
[1] = tested on: Puccinia recondita f. sp. tritici (the causal agent of wheat leaf rust); assay: Test C: preventive spray on wheat seedlings, wheat leaf rust, visual disease rating; settings: wheat seedlings
Method in brief: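 Wheat seedlings sprayed to run-off with compound in acetone/water (50/50) with 250 ppm PEG400, then inoculated with spores the following day. After 24 h saturated humidity at 20° C. and 6 days in growth chamber at 20° C., disease rated visually as % control relative to untreated controls.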

[2] = tested on: Phakopsora pachyrhizi (the causal agent of Asian soybean rust); assay: Test A: preventive spray on soybean seedlings, Asian soybean rust, visual disease rating; settings: soybean seedlings
Method in brief: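 Preventive test: soybean seedlings received a run-off spray of compound suspended at the set ppm in 50/50 acetone/water plus 250 ppm PEG400, and one day later a P. pachyrhizi spore inoculum. Visual scoring (0 none to 100 full disease control) followed 24 h saturated incubation and 8 days' growth chamber, both at 22° C.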

[3] = tested on: Zymoseptoria tritici (the causal agent of wheat leaf blotch); assay: Test B: preventive spray on wheat seedlings, wheat leaf blotch, visual disease rating; settings: wheat seedlings
Method in brief: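 This is a preventive test: spray application preceded Zymoseptoria tritici spore inoculation by one day. Test suspensions were in acetone/water with 250 ppm PEG400 surfactant, at the listed ppm rate. After 48 h saturated humidity at 24° C and 17 days at 20° C, visual ratings scored control from 0 to 100%.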

[4] = 50 ppm test suspension, 100 = 100% disease control, 0 = no control
[5] = 250 ppm test suspension, 100 = 100% disease control
[6] = test suspension 10 ppm, 100 = 100% disease control, 0 = no control
[7] = 10 ppm test suspension, 100 = 100% disease control, 0 = no control

SMILES: CCOC(=O)c1cnn(CCN2CCC(c3noc(C(F)(F)F)n3)CC2)c1 [compound 459]
- Test C disease control rating [1, 4]: 0%
- Test A disease control rating [2, 4]: 0%
- Test B disease control rating [3, 5]: 0* %

SMILES: C=CCOC(=O)c1cnn(Cc2ccc(-c3noc(C(F)(F)F)n3)cc2)c1 [compound 166]
- Test C disease control rating ([1]; test suspension 10 ppm): 100%
- Test A disease control rating [2, 6]: 100%
- Test B disease control rating ([3]; test suspension 100 ppm (** next to rating)): 90** %

SMILES: NC(=O)c1csc(Cc2ccc(-c3noc(C(F)(F)F)n3)cc2)n1 [compound 343]
- Test C disease control rating ([1]; test suspension 10 ppm): 100%
- Test A disease control rating [2, 6]: 100%
- Test B disease control rating ([3]; test suspension 250 ppm): 97* %

SMILES: COCCNC(=O)c1ccc(Cc2ccc(-c3noc(C(F)(F)F)n3)cc2)cc1 [Compound 282]
- Test C disease control rating ([1]; test suspension 10 ppm): 97%
- Test A disease control rating [2, 6]: 100%
- Test B disease control rating ([3]; test suspension 250 ppm): 94* %

SMILES: ON=Cc1cnn(Cc2ccc(-c3noc(C(F)(F)F)n3)cc2)c1 (mixture of isomers) [compound 20]
- Test C disease control rating ([1]; test suspension 250 ppm): 100%
- Test A disease control rating ([2]; test suspension 250 ppm): 100%
- Test B disease control rating ([3]; test suspension 250 ppm): 99%

SMILES: CC(C)(NC(=O)c1coc(Cc2ccc(-c3noc(C(F)(F)F)n3)cc2)n1)C(F)(F)F [compound 331]
- Test C disease control rating ([1]; test suspension 10 ppm): 94%
- Test A disease control rating [2, 6]: 99%
- Test B disease control rating ([3]; test suspension 250 ppm): 97* %

SMILES: O=C(NCCn1cccn1)c1csc(Cc2ccc(-c3noc(C(F)(F)F)n3)cc2)c1 [compound 289]
- Test C disease control rating ([1]; test suspension 10 ppm): 100%
- Test A disease control rating [2, 6]: 100%
- Test B disease control rating ([3]; test suspension 250 ppm): 80* %

SMILES: CCNC(=O)c1coc(Cc2ccc(-c3noc(C(F)(F)F)n3)cc2)n1 [compound 280]
- Test C disease control rating ([1]; test suspension 10 ppm): 99%
- Test A disease control rating [2, 6]: 100%
- Test B disease control rating ([3]; test suspension 250 ppm): 99* %

SMILES: COC(=O)c1coc(COc2ccc(-c3noc(C(F)(F)F)n3)cc2)n1 [Compound 403, methyl 2-[[4-[5-(trifluoromethyl)-1,2,4-oxadiazol-3-yl]¬phenoxy]¬methyl]oxazole-4-carboxylate]
- Test C disease control rating [1, 7]: 0%
- Test A disease control rating [2, 7]: 60%
- Test B disease control rating [3, 5]: 47* %

SMILES: CCOC(=O)c1cnn(Cc2ccc(-c3noc(C(F)(F)F)n3)o2)c1 [compound 210]
- Test C disease control rating ([1]; test suspension 50 ppm): 99%
- Test A disease control rating ([2]; test suspension 50 ppm): 100%
- Test B disease control rating ([3]; test suspension 250 ppm): 63* %

SMILES: COC(=O)c1csc(Cc2ccc(-c3noc(C(F)(F)F)n3)cc2)c1 [Compound 455]
- Test C disease control rating [1, 7]: 0%
- Test A disease control rating [2, 7]: 100%
- Test B disease control rating [3, 5]: 66* %

SMILES: O=C1N(Cc2ccc(-c3noc(C(F)(F)F)n3)cc2)c2ccccc2C1(F)F [compound 161]
- Test C disease control rating ([1]; test suspension 265 ppm): 99%
- Test A disease control rating ([2]; test suspension 265 ppm): 100%
- Test B disease control rating ([3]; test suspension 265 ppm): 33%

SMILES: Cc1nc(COc2ccc(-c3noc(C(F)(F)F)n3)cc2)cs1 [compound 298]
- Test C disease control rating ([1]; test suspension 10 ppm): 0%
- Test A disease control rating [2, 6]: 50%
- Test B disease control rating ([3]; test suspension 250 ppm): 73* %

SMILES: O=c1cnc2ccccc2n1Cc1ccc(-c2noc(C(F)(F)F)n2)cc1 [Compound 158, 1-[[4-[5-(trifluoromethyl)-1,2,4-oxadiazol-3-yl]phenyl]methyl]-2(1H)-quinoxalinone]
- pest or weed control at 270 µg/mL ([1]; Puccinia recondita, 168 h, test suspension 270 ppm): 100%
- pest or weed control at 270 µg/mL ([2]; Phakopsora pachyrhizi, 216 h, test suspension 270 ppm): 100%
- pest or weed control at 270 µg/mL ([3]; Zymoseptoria tritici, 456 h, test suspension 270 ppm): 90%

SMILES: FC(F)(F)c1nc(-c2ccc(Cn3ncc4cc(Br)ccc43)cc2)no1 [compound 128]
- Test C disease control rating ([1]; test suspension 255 ppm): 100%
- Test A disease control rating ([2]; test suspension 255 ppm): 100%
- Test B disease control rating ([3]; test suspension 255 ppm): 19%

SMILES: FC(F)(F)c1nc(-c2ccc(OCc3ccon3)cc2)no1 [compound 318]
- Test C disease control rating ([1]; test suspension 10 ppm): 0%
- Test A disease control rating [2, 6]: 0%
- Test B disease control rating ([3]; test suspension 250 ppm): 11* %

SMILES: COC(=O)c1ncn(Cc2ccc(-c3noc(C(F)(F)F)n3)cc2)n1 [compound 139]
- Test C disease control rating ([1]; test suspension 255 ppm): 100%
- Test A disease control rating ([2]; test suspension 255 ppm): 100%
- Test B disease control rating ([3]; test suspension 255 ppm): 62%

SMILES: Cn1c(=O)n(Cc2ccc(-c3noc(C(F)(F)F)n3)cc2)c2ccccc21 [Compound 159, 1,3-dihydro-1-methyl-3-[[4-[5-(trifluoromethyl)-1,2,4-oxadiazol-3-yl]phenyl]methyl]-2H-benzimidazol-2-one]
- pest or weed control at 260 µg/mL ([1]; Puccinia recondita, 168 h, test suspension 260 ppm): 100%
- pest or weed control at 260 µg/mL ([2]; Phakopsora pachyrhizi, 216 h, test suspension 260 ppm): 100%
- pest or weed control at 260 µg/mL ([3]; Zymoseptoria tritici, 456 h, test suspension 260 ppm): 87%
